The results in this text go back to patent publication US9334269B2, “Carboxamides as inhibitors of voltage-gated sodium channels” (AMGEN INC., priority 2010, dated 2016).

As usually defined, the IC50 is the concentration that inhibits the measured activity by half. The low end stands for greater potency, the high end for weaker potency.

T1 sequence (Q15858 whole entry): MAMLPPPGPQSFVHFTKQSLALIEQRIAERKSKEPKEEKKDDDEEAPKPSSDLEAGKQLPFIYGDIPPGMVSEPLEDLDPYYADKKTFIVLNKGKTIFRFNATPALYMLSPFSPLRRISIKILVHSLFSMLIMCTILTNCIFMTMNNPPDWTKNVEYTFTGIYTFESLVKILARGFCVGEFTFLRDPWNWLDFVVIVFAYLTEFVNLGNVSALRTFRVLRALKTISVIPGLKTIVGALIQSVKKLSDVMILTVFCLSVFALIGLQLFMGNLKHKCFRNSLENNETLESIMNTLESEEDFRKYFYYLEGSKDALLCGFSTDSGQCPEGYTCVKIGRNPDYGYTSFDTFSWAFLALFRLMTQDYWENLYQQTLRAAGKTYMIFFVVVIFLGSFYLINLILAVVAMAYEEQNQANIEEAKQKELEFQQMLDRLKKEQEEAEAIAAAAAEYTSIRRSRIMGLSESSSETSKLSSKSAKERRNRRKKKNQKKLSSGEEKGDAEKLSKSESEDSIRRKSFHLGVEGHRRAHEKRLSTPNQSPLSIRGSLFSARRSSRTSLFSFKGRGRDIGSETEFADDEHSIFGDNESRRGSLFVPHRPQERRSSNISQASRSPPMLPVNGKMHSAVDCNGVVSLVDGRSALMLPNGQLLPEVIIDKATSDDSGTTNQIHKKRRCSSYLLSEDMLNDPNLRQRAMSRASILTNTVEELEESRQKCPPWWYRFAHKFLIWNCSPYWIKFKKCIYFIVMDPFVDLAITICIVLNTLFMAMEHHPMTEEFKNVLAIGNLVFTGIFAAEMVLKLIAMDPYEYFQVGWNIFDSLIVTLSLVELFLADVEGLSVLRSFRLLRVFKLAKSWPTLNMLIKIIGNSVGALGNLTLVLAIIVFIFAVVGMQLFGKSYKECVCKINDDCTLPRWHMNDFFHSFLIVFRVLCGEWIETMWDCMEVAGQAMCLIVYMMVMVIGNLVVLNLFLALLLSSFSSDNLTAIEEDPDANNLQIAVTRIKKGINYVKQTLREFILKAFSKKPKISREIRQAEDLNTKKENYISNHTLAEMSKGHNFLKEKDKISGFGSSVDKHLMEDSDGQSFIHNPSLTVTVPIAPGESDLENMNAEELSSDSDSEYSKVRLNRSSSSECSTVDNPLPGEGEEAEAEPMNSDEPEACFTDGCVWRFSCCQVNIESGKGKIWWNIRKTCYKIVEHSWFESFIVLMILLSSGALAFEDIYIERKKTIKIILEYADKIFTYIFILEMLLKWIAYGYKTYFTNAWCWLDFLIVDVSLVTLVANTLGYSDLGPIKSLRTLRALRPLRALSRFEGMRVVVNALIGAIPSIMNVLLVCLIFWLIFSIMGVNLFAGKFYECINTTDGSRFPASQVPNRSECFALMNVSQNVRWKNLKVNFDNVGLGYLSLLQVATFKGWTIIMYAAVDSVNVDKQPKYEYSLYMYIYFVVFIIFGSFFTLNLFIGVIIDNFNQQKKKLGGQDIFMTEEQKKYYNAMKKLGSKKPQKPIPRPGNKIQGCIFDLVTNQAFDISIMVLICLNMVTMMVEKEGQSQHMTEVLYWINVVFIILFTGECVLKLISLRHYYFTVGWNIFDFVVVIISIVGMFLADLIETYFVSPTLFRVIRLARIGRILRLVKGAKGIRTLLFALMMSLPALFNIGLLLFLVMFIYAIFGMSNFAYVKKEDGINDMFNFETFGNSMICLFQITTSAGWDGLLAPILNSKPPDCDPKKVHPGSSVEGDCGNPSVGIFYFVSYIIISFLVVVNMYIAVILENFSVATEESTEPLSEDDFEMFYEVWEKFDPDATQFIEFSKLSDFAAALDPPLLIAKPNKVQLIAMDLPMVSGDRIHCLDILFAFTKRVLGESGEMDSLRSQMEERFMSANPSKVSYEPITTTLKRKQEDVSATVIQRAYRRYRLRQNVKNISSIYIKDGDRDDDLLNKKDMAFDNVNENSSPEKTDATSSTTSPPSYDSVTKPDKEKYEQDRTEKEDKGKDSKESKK

The first experiment concerns the target T1, human Nav1.7 (hNav1.7) (Homo sapiens, UniProt Q15858).
T1 construct: expressed in transfected cells
Description: hNav1.7 whole-cell patch-clamp electrophysiology (automated PatchXpress 7000A or manual) in stably expressing 293 cells. The note with it: average IC50. The experiment is classed as cell-based. The method, boiled down:
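Stably transfected 293 cells lacking endogenous sodium channels; peak current evoked by depolarizing pulses during increasing compound concentrations, automated at ~20% fractional inactivation, or manually at −140 mV (resting) and ~20% inactivation. Block taken at steady state, corrected for rundown; IC50 by Hill fit.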
(In patch-clamp work, channel activity is measured electrically.)
`CNC(=O)c1cccc(Nc2ncnc(N3CCCC(Oc4cccc(Cl)c4)C3)n2)c1` (stereo not drawn) [Example 278] returned a 50% inhibitory concentration (IC50) of 26 µM. On the same count and under the same terms, as for `CNC(=O)c1cccc(Nc2ncnc(N3CCc4ccc(Cl)cc4C3)n2)c1` [Example 279], the figure is 26.4 µM; as for `CNC(=O)c1cccc(Nc2ncnc(N(C)Cc3nc(-c4ccccc4)no3)n2)c1` [Example 280], 27.7 µM. Still for that read-out and setting: as for `CNC(=O)c1cccc(Nc2ncnc(N3CCc4cccc(OC)c4C3)n2)c1` [Example 281], the figure is 27.9 µM. Consider `CNC(=O)c1cc(F)cc(Nc2ncnc(NCCCOc3ccc(OC(F)(F)F)cc3)n2)c1` [Example 282], for which the half-inhibitory concentration (IC50) was over 30 µM.

In turn, `CNC(=O)c1ccc(OC)c(Nc2ncnc(N3CC(Oc4ccc(Cl)cc4)C3)n2)c1` [Example 283] had an IC50 of over 30 µM. The molecule `CNC(=O)c1cccc(Nc2nc(C)nc(N3CC(Oc4ccc(F)cc4)C3)n2)c1` [Example 284] registered a half-inhibitory concentration (IC50) of over 30 µM.

`CNC(=O)c1cccc(Nc2ncc(F)c(N3CC(Oc4ccc(F)cc4)C3)n2)c1` [Example 285] came in with a half-maximal inhibitory concentration (IC50) of over 30 µM. On the same count and under the same terms, as for `CNC(=O)c1cccc(Nc2ncnc(NCc3cn4cc(C)ccc4n3)n2)c1` [Example 286], the figure is over 30 µM. Still for that read-out and setting: as for `CNC(=O)c1cccc(Nc2ncnc(NCCc3nnc(-c4ccc(C)s4)o3)n2)c1` [Example 287], the figure is over 30 µM; as for `CNC(=O)c1cccc(Nc2ncnc(NCCc3nc4cc(Cl)ccc4[nH]3)n2)c1` [Example 288], over 30 µM; as for `CNC(=O)c1cccc(Nc2ncnc(NCc3noc(C(=O)NC4CC4)n3)n2)c1` [Example 289], over 30 µM. Turning to `CCN1C(=O)C2(CCN(c3ncnc(Nc4cccc(C(=O)NC)c4)n3)CC2)c2ccccc21` [Example 290], the IC50 was over 30 µM.

Take `NC(=O)c1cc(Nc2ncnc(N3CC(Oc4ccc(F)cc4)C3)n2)ccc1F` [Example 291]: the IC50 is over 30 µM.

Consider `CNC(=O)c1cccc(Nc2ncnc(N3CCc4cc(C(O)C(F)(F)F)ccc4C3)n2)c1` (stereo not drawn) [Example 292], for which the IC50 was over 30 µM. Same read-out and setting: as for `Cc1c(Nc2ncnc(N3CCc4cc(Br)ccc4C3)n2)cccc1C(N)=O` [Example 293], the figure is over 30 µM. For `CNC(=O)c1cccc(Nc2ncnc(N3CCC(CCCc4ccccc4)CC3)n2)c1` [Example 294], the IC50 was over 30 µM. The same measure, in the same setting: then `Cc1ccc(N2CCN(c3ncnc(Nc4ccc(F)c(C(N)=O)c4)n3)CC2)cc1C` [Example 295], with over 30 µM. The same measure, in the same setting: as for `CNC(=O)c1cccc(Nc2ncnc(N3CCC(OCC(C)C)CC3)n2)c1` [Example 296], the figure is over 30 µM; as for `CNC(=O)c1cccc(Nc2ncnc(N3CC(Oc4ccccc4C#N)C3)n2)c1` [Example 297], over 30 µM; as for `CNC(=O)c1cccc(Nc2ncnc(N3CCc4ccc(C(F)(F)F)cc4C3)n2)c1` [Example 298], over 30 µM. Still for that read-out and setting: as for `CNC(=O)c1cccc(Nc2ncnc(N3CCc4cc(C#N)ccc4C3)n2)c1` [Example 299], the figure is over 30 µM.

Still in this experiment, the particulars now being: human Nav1.7 stably expressed in 293 cells; whole-cell patch clamp; average IC50 from Hill fit.
With `CNC(=O)c1cccc(Nc2nccc(N3CC(Oc4ccc(Cl)c(Cl)c4)C3)n2)c1` [Example A, 3-(4-(3-(3,4-dichlorophenoxy)azetidin-1-yl)pyrimidin-2-ylamino)-N-methylbenzamide], the IC50 worked out at 0.78 µM. In the case of `CNC(=O)c1cccc(Nc2ccnc(N3CC(Oc4ccc(Cl)cc4F)C3)c2)c1` [Example AA, 3-((2-(3-(4-chloro-2-fluorophenoxy)-1-azetidinyl)-4-pyridinyl)amino)-N-methylbenzamide], the IC50 was 7.15 µM. The same measure, in the same setting: as for `CNC(=O)c1cccc(Nc2nccc(N3CC(Oc4ccc(Cl)cc4Cl)C3)n2)c1` [Example AAA, 3-(4-(3-(2,4-dichlorophenoxy)azetidin-1-yl)pyrimidin-2-ylamino)-N-methylbenzamide], the figure is 0.52 µM; as for `CNC(=O)c1cccc(Nc2ncnc(N3CC(Oc4ccc(Cl)cc4F)C3)c2F)c1` [Example AB, 3-((6-(3-(4-chloro-2-fluorophenoxy)-1-azetidinyl)-5-fluoro-4-pyrimidinyl)-amino)-N-methylbenzamide], over 30 µM. The same measure, in the same setting: as for `CNC(=O)c1cccc(Nc2ccnc(NCCCOc3ccc(OC(F)(F)F)cc3)n2)c1` [Example AC, N-methyl-3-((2-((3-(4-(trifluoromethoxy)phenoxy)propyl)amino)-4-pyrimidinyl)amino)benzamide], the figure is 1.17 µM.

For `CNC(=O)c1cccc(Nc2ncnc(N3CCC(OCc4ccc(OC(F)(F)F)cc4)CC3)n2)c1C` [Example AD, N,2-dimethyl-3-((4-(4-((4-(trifluoromethoxy)benzyl)oxy)-1-piperidinyl)-1,3,5-triazin-2-yl)amino)benzamide], the IC50 worked out at 28.6 µM. The same measure, in the same setting: then `CNC(=O)c1cccc(Oc2ncnc(N3CC(Oc4ccc(Cl)cc4F)C3)n2)c1` [Example AE, 3-((4-(3-(4-chloro-2-fluorophenoxy)-1-azetidinyl)-1,3,5-triazin-2-yl)oxy)-N-methylbenzamide], with over 30 µM. The same measure, in the same setting: then `CNC(=O)c1cccc(Nc2cccc(N3CC(Oc4ccc(F)cc4)C3)c2)c1` [Example AF, 3-((3-(3-(4-fluorophenoxy)-1-azetidinyl)phenyl)amino)-N-methylbenzamide], with 9.53 µM; and `CNC(=O)c1cccc(Nc2cccc(N3CC(Oc4ccc(Cl)cc4F)C3)c2)c1` [Example AG, 3-((3-(3-(4-chloro-2-fluorophenoxy)-1-azetidinyl)phenyl)amino)-N-methylbenzamide], with over 30 µM. Still for that read-out and setting: as for `CNC(=O)c1cccc(Nc2nc(N3CC(Oc4ccc(F)cc4)C3)ncc2F)c1` [Example AH, 3-((5-fluoro-2-(3-(4-fluorophenoxy)-1-azetidinyl)-4-pyrimidinyl)amino)-N-methylbenzamide], the figure is 0.34 µM. On to `CNC(=O)c1cccc(Nc2nccc(N3CCc4cc(OCC(F)(F)F)ccc4C3)n2)c1` [Example AI, N-methyl-3-((4-(6-(2,2,2-trifluoroethoxy)-3,4-dihydro-2(1H)-isoquinolinyl)-2-pyrimidinyl)amino)benzamide], for which the concentration for half-maximal inhibition (IC50) worked out at 1.44 µM. Still for that read-out and setting: then `CNC(=O)c1cccc(Nc2ccnc(N3CC(Oc4ccc(Cl)cc4F)C3)n2)c1` [Example AJ, 3-((2-(3-(4-chloro-2-fluorophenoxy)-1-azetidinyl)-4-pyrimidinyl)amino)-N-methylbenzamide], with 2.26 µM. Same read-out and setting: then `CNC(=O)c1cccc(Nc2nc(N3CC(Oc4ccc(Cl)cc4F)C3)ncc2F)c1` [Example AK, 3-((2-(3-(4-chloro-2-fluorophenoxy)-1-azetidinyl)-5-fluoro-4-pyrimidinyl)amino)-N-methylbenzamide], with 0.43 µM; and `CNC(=O)c1cccc(Nc2nccc(N3CC(Oc4ccc(C)cc4)C3)n2)c1` [Example B, N-methyl-3-((4-(3-(4-methylphenoxy)-1-azetidinyl)-2-pyrimidinyl)amino)benzamide], with 2 µM. On the same count and under the same terms, as for `CNC(=O)c1cccc(Nc2nccc(N3CC(Oc4ccc(C(F)(F)F)cc4)C3)n2)c1` [Example C, N-methyl-3-((4-(3-(4-(trifluoromethyl)phenoxy)-1-azetidinyl)-2-pyrimidinyl)amino)benzamide], the figure is 1.55 µM; as for `CNC(=O)c1cccc(Nc2nccc(N3CC(Oc4ccc(OC)cc4)C3)n2)c1` [Example D, 3-((4-(3-(4-methoxyphenoxy)-1-azetidinyl)-2-pyrimidinyl)amino)-N-methylbenzamide], 0.43 µM.

With `CNC(=O)c1cccc(Nc2nccc(N3CC(Oc4ccc(F)c(F)c4)C3)n2)c1` [Example E, 3-((4-(3-(3,4-difluorophenoxy)-1-azetidinyl)-2-pyrimidinyl)amino)-N-methylbenzamide], the IC50 was determined as 1.6 µM. For `CNC(=O)c1cccc(Nc2nccc(N3CC(Oc4ccc(F)c(Cl)c4)C3)n2)c1` [Example F, 3-((4-(3-(3-chloro-4-fluorophenoxy)-1-azetidinyl)-2-pyrimidinyl)amino)-N-methylbenzamide], the IC50 is 2.83 µM. The same measure, in the same setting: as for `CNC(=O)c1cccc(Nc2nccc(N3CC(Oc4ccc(F)c(C)c4)C3)n2)c1` [Example G, 3-((4-(3-(4-fluoro-3-methylphenoxy)-1-azetidinyl)-2-pyrimidinyl)amino)-N-methylbenzamide], the figure is 1.41 µM; as for `CNC(=O)c1cccc(Nc2nccc(N3CC(Oc4ccc(F)cc4F)C3)n2)c1` [Example H, 3-((4-(3-(2,4-difluorophenoxy)-1-azetidinyl)-2-pyrimidinyl)amino)-N-methylbenzamide], 2.16 µM; as for `CNC(=O)c1cccc(Nc2nccc(N3CC(Oc4ccc(F)cc4Cl)C3)n2)c1` [Example I, 3-((4-(3-(2-chloro-4-fluorophenoxy)-1-azetidinyl)-2-pyrimidinyl)amino)-N-methylbenzamide], 0.63 µM. The molecule `CNC(=O)c1cccc(Nc2nccc(N3CC(Oc4ccc(F)cc4C)C3)n2)c1` [Example J, 3-((4-(3-(4-fluoro-2-methylphenoxy)-1-azetidinyl)-2-pyrimidinyl)amino)-N-methylbenzamide] registered an IC50 of 0.08 µM. The molecule `CNC(=O)c1cccc(Nc2nccc(N3CC(Oc4ccc(Cl)c(F)c4)C3)n2)c1` [Example K, 3-((4-(3-(4-chloro-3-fluorophenoxy)-1-azetidinyl)-2-pyrimidinyl)amino)-N-methylbenzamide] gave a half-maximal inhibitory concentration (IC50) of 0.74 µM. Same read-out and setting: as for `CNC(=O)c1cccc(Nc2nccc(N3CC(Oc4ccc(Cl)c(C)c4)C3)n2)c1` [Example L, 3-((4-(3-(4-chloro-3-methylphenoxy)-1-azetidinyl)-2-pyrimidinyl)amino)-N-methylbenzamide], the figure is 0.31 µM; as for `CNC(=O)c1cccc(Nc2nccc(N3CC(Oc4ccc(Cl)cc4F)C3)n2)c1` [Example M, 3-((4-(3-(4-chloro-2-fluorophenoxy)-1-azetidinyl)-2-pyrimidinyl)amino)-N-methylbenzamide], 2.3 µM. On the same count and under the same terms, then `CNC(=O)c1cccc(Nc2nccc(N3CC(Oc4ccc(Cl)cc4C)C3)n2)c1` [Example N, 3-((4-(3-(4-chloro-2-methylphenoxy)-1-azetidinyl)-2-pyrimidinyl)amino)-N-methylbenzamide], with 0.26 µM.
